Read-outs that look alike come from different tables or passages of the source.
Tests used:
[1] = tested on: phosphorylated 4E-BP1 Thr37/46 (p4E-BP1 Thr37/46), mTORC1 activity, PC3 cells; test: mTOR target engagement assay, immunofluorescent cell-based, p4E-BP1 Thr37/46 readout (mTORC1 activity); conditions: read-out: p4E-BP1 Thr37/46 IC50
Outline: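 Read-out is fluorescence intensity of immunostained p4E-BP1 Thr37/46 in fixed PC3 cells, fitted to a logistic curve for IC50 with DMSO-only wells as top. Cells had been exposed to serial compound dilutions for ninety minutes at 37° C in 5% FBS medium with 0.25% DMSO.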

[2] = tested on: phosphorylated AKT Ser473 (pAKT S473), mTORC2 activity, PC3 cells; test: mTOR target engagement assay, immunofluorescent cell-based, pAKT S473 readout (mTORC2 activity)
Outline: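 After blocking, cells were stained overnight at 4 °C with anti-pAKT S473 antibody, then a fluorescent secondary; inhibition was read as reduced fluorescence intensity.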

[3] = Homo sapiens, PC-3, PC3 cells, compound treatment ninety minutes at 37° C.
[4] = Homo sapiens, PC-3, Table 3-1, PC3 cells

CC(=O)c1c([C@@H]2C[C@H]3CC[C@@H](C2)N3C(=O)CO)nc2c(-c3ccc(-c4ccccc4)nc3)cnn2c1N [Compound 1.1.5, 1-((1R,3s,5S)-3-(6-acetyl-7-amino-3-(6-phenylpyridin-3-yl)pyrazolo[1,5-a]pyrimidin-5-yl)-8-azabicyclo[3.2.1]octan-8-yl)-2-hydroxyethanone]
IC50 [1, 3]: 0.001 to 0.1 µM
IC50 [2, 3]: 0.001 to 0.1 µM

CS(=O)(=O)c1c([C@@H]2C[C@H]3CC[C@@H](C2)N3C(=O)CO)nc2c(-c3ccc(CO)c(F)c3)cnn2c1N [Compound 8.43, 1-((1R,3s,5S)-3-(7-amino-3-(3-fluoro-4-(hydroxymethyl)phenyl)-6-(methylsulfonyl)pyrazolo[1,5-a]pyrimidin-5-yl)-8-azabicyclo[3.2.1]octan-8-yl)-2-hydroxyethanone]
IC50 ([1]; Homo sapiens, PC-3, PC3 cells): 0.1 to 1 µM
IC50 ([2]; Homo sapiens, PC-3, PC3 cells): 0.1 to 1 µM

CS(=O)(=O)c1c([C@@H]2C[C@H]3CC[C@@H](C2)N3C(=O)c2nnc[nH]2)nc2c(-c3ccc(-c4c(F)cccc4F)nc3)cnn2c1N [Compound 3.107, ((1R,3s,5S)-3-(7-amino-3-(6-(2,6-difluorophenyl)pyridin-3-yl)-6-(methylsulfonyl)pyrazolo[1,5-a]pyrimidin-5-yl)-8-azabicyclo[3.2.1]octan-8-yl)(4H-1,2,4-triazol-3-yl)methanone]
IC50 [1, 4]: 0.001 to 0.1 µM
IC50 [2, 4]: 0.001 to 0.1 µM

CC(=O)c1c([C@@H]2C[C@H]3CC[C@@H](C2)N3C(=O)c2nnc[nH]2)nc2c(-c3ccc(-c4ccc(F)cc4)nc3)cnn2c1N [Compound 1.1.163, 1-(5-((1R,3s,5S)-8-(4H-1,2,4-triazole-3-carbonyl)-8-azabicyclo[3.2.1]octan-3-yl)-7-amino-3-(6-(4-fluorophenyl)pyridin-3-yl)pyrazolo[1,5-a]pyrimidin-6-yl)ethanone]
IC50 [1, 3]: 0.1 to 1 µM
IC50 [2, 3]: 0.001 to 0.1 µM

CS(=O)(=O)c1c(C2CC3COCC(C2)N3C(=O)c2nc[nH]n2)nc2c(-c3ccc(-c4ccccc4)nc3)cnn2c1N (single isomer, unassigned) [Compound 8.30, (7-(7-amino-6-(methylsulfonyl)-3-(6-phenylpyridin-3-yl)pyrazolo[1,5-a]pyrimidin-5-yl)-3-oxa-9-azabicyclo[3.3.1]nonan-9-yl)(1H-1,2,4-triazol-3-yl)methanone]
IC50 ([1]; PC3 cells): 0.001 to 0.1 µM
IC50 ([2]; PC3 cells): 0.001 to 0.1 µM

CS(=O)(=O)c1c([C@@H]2C[C@H]3CC[C@@H](C2)N3C(=O)[C@@H]2COC(=O)N2)nc2c(-c3ccc(-c4ccccc4)nc3)cnn2c1N [Compound 3.141, (S)-4-((1R,3R,5S)-3-(7-amino-6-(methylsulfonyl)-3-(6-phenylpyridin-3-yl)pyrazolo[1,5-a]pyrimidin-5-yl)-8-azabicyclo[3.2.1]octane-8-carbonyl)oxazolidin-2-one]
IC50 [1, 4]: 1 to 10 µM
IC50 [2, 4]: 1 to 10 µM

[2H]C1(O)CCCc2cc(-c3cnn4c(N)c(C(C)=O)c([C@H]5CC6CC[C@H](C5)N6C(=O)c5nnc[nH]5)nc34)cnc21 (stereo partly drawn) [Compound 7.57, DEUTERATED-(3- EXO)-3-[6-ACETYL-7- AMINO-3-(5,6,7,8- TETRAHYDRO-8- HYDROXY-3- QUINOLINYL- (D))PYRAZOLO[1,5- a]PYRIMIDIN-5-YL]-8- (4H-1,2,4-TRIAZOL-3- YLCARBONYL)-8- AZABICYCLO[3.2.1] OCTANE]
IC50 ([1]; Homo sapiens, PC-3, PC3 cells): 0.001 to 0.1 µM
IC50 ([2]; Homo sapiens, PC-3, PC3 cells): 0.1 to 1 µM

CCCS(=O)(=O)c1c([C@@H]2C[C@H]3CC[C@@H](C2)N3C(=O)c2nnc[nH]2)nc2c(-c3ccc(-c4ccccc4)nc3)cnn2c1N [Compound 3.162, ((1R,3s,5S)-3-(7-amino-3-(6-phenylpyridin-3-yl)-6-(propylsulfonyl)pyrazolo[1,5-a]pyrimidin-5-yl)-8-azabicyclo[3.2.1]octan-8-yl)(4H-1,2,4-triazol-3-yl)methanone]
IC50 [1, 4]: 0.1 to 1 µM
IC50 [2, 4]: 0.1 to 1 µM

[2H]C([2H])([2H])n1ccc(-c2ccc(-c3cnn4c(N)c(C(C)=O)c([C@@H]5C[C@H]6CC[C@@H](C5)N6C(=O)CO)nc34)cn2)n1 [Compound 1.1.84, 1-((1R,3s,5S)-3-(6-acetyl-7-amino-3-(6-(1-methyl-(D3)-1H-pyrazol-3-yl)pyridin-3-yl)pyrazolo[1,5-a]pyrimidin-5-yl)-8-azabicyclo[3.2.1]octan-8-yl)-2-hydroxyethanone]
IC50 [1, 3]: 0.001 to 0.1 µM
IC50 [2, 3]: 0.001 to 0.1 µM

Cc1ccc(-c2cnn3c(N)c(S(C)(=O)=O)c([C@@H]4C[C@H]5CC[C@@H](C4)N5C(=O)c4nnc[nH]4)nc23)cn1 [Compound 3.68, ((1R,3s,5S)-3-(7-amino-3-(6-methylpyridin-3-yl)-6-(methylsulfonyl)pyrazolo[1,5-a]pyrimidin-5-yl)-8-azabicyclo[3.2.1]octan-8-yl)(4H-1,2,4-triazol-3-yl)methanone]
IC50 ([1]; Table 3-1, PC3 cells): 0.1 to 1 µM
IC50 ([2]; Table 3-1, PC3 cells): 0.1 to 1 µM

CCC(=O)c1ccc(-c2cnn3c(N)c(C(C)=O)c([C@@H]4C[C@H]5CC[C@@H](C4)N5C(=O)c4nnc[nH]4)nc23)cn1 [Compound 1.1.83, 1-(5-(5-((1R,3s,5S)-8-(4H-1,2,4-triazole-3-carbonyl)-8-azabicyclo[3.2.1]octan-3-yl)-6-acetyl-7-aminopyrazolo[1,5-a]pyrimidin-3-yl)pyridin-2-yl)propan-1-one]
IC50 [1, 3]: 0.1 to 1 µM
IC50 [2, 3]: 0.1 to 1 µM

CC(=O)c1c([C@@H]2C[C@H]3CC[C@@H](C2)N3C(=O)c2nnc[nH]2)nc2c(-c3cnc(-c4ccccc4)c(O)c3)cnn2c1N [Compound 1.1.31, 1-(5-((1R,3s,5S)-8-(4H-1,2,4-triazole-3-carbonyl)-8-azabicyclo[3.2.1]octan-3-yl)-7-amino-3-(5-hydroxy-6-phenylpyridin-3-yl)pyrazolo[1,5-a]pyrimidin-6-yl)ethanone]
IC50 [1, 3]: 1 to 10 µM
IC50 [2, 3]: 1 to 10 µM

CS(=O)(=O)c1c([C@@H]2C[C@H]3CC[C@@H](C2)N3C(=O)c2cc(N)n[nH]2)nc2c(-c3ccc(-c4ccc(F)cc4F)nc3)cnn2c1N [Compound 3.129, (3-amino-1H-pyrazol-5-yl)((1R,3s,5S)-3-(7-amino-3-(6-(2,4-difluorophenyl)pyridin-3-yl)-6-(methylsulfonyl)pyrazolo[1,5-a]pyrimidin-5-yl)-8-azabicyclo[3.2.1]octan-8-yl)methanone]
IC50 [1, 4]: 0.001 to 0.1 µM
IC50 [2, 4]: 0.001 to 0.1 µM

CC(=O)c1c([C@@H]2C[C@H]3CC[C@@H](C2)N3C(=O)CO)nc2c(-c3ccc(-c4c(F)cccc4F)nc3)cnn2c1N [Compound 1.1.171, 1-((1R,3s,5S)-3-(6-acetyl-7-amino-3-(6-(2,6-difluorophenyl)pyridin-3-yl)pyrazolo[1,5-a]pyrimidin-5-yl)-8-azabicyclo[3.2.1]octan-8-yl)-2-hydroxyethanone]
IC50 [1, 3]: 0.001 to 0.1 µM
IC50 [2, 3]: 0.001 to 0.1 µM

CS(=O)(=O)c1c([C@@H]2C[C@H]3CC[C@@H](C2)N3C(=O)c2cccc(=O)[nH]2)nc2c(-c3ccc(-c4ccccc4)nc3)cnn2c1N [Compound 3.140, 6-((1R,3s,5S)-3-(7-amino-6-(methylsulfonyl)-3-(6-phenylpyridin-3-yl)pyrazolo[1,5-a]pyrimidin-5-yl)-8-azabicyclo[3.2.1]octane-8-carbonyl)pyridin-2(1H)-one]
IC50 [1, 4]: 0.1 to 1 µM
IC50 [2, 4]: 0.001 to 0.1 µM

CC(C)S(=O)(=O)c1c([C@@H]2C[C@H]3CC[C@@H](C2)N3C(=O)c2nnc[nH]2)nc2c(-c3ccc(-c4ccccc4)nc3)cnn2c1N [Compound 3.163, ((1R,3s,5S)-3-(7-amino-6-(isopropylsulfonyl)-3-(6-phenylpyridin-3-yl)pyrazolo[1,5-a]pyrimidin-5-yl)-8-azabicyclo[3.2.1]octan-8-yl)(4H-1,2,4-triazol-3-yl)methanone]
IC50 [1, 4]: 0.1 to 1 µM
IC50 [2, 4]: 0.1 to 1 µM

CS(=O)(=O)c1c([C@@H]2C[C@H]3CC[C@@H](C2)N3C(=O)CO)nc2c(-c3ccc(C(N)=O)c(F)c3)cnn2c1N [Compound 3.156, 4-(7-amino-5-((1R,3a,5S)-8-(2-hydroxyacetyl)-8-azabicyclo[3.2.1]octan-3-yl)-6-(methylsulfonyl)pyrazolo[1,5-a]pyrimidin-3-yl)-2-fluorobenzamide]
IC50 [1, 4]: 1 to 10 µM
IC50 [2, 4]: > 10 µM

Nc1cc([C@@H]2C[C@H]3CC[C@@H](C2)N3C(=O)c2ncn[nH]2)nc2c(-c3ccc(CO)nc3)cnn12 [Compound 7.97, ((1R,3s,5S)-3-(7-amino-3-(6-(hydroxymethyl)pyridin-3-yl)pyrazolo[1,5-a]pyrimidin-5-yl)-8-azabicyclo[3.2.1]octan-8-yl)(1H-1,2,4-triazol-5-yl)methanone]
IC50 ([1]; Homo sapiens, PC-3, PC3 cells): 1 to 10 µM
IC50 ([2]; Homo sapiens, PC-3, PC3 cells): > 10 µM

CS(=O)(=O)c1c([C@@H]2C[C@H]3CC[C@@H](C2)N3C(=O)c2ncc[nH]2)nc2c(-c3ccc(-c4ccccc4)nc3)cnn2c1N [Compound 3.78, ((1R,3s,5S)-3-(7-amino-6-(methylsulfonyl)-3-(6-phenylpyridin-3-yl)pyrazolo[1,5-a]pyrimidin-5-yl)-8-azabicyclo[3.2.1]octan-8-yl)(1H-imidazol-2-yl)methanone]
IC50 [1, 4]: 0.1 to 1 µM
IC50 [2, 4]: 0.1 to 1 µM

CC(=O)c1c([C@@H]2C[C@H]3CC[C@@H](C2)N3C(=O)[C@@H](C)O)nc2c(-c3ccc(-c4ccccc4)nc3)cnn2c1N [Compound 1.1.2]
IC50 [1, 3]: 0.1 to 1 µM
IC50 [2, 3]: 0.001 to 0.1 µM
